Assay results taken from patent US8575188B2 (priority 2009, dated 2013).

Key:
[1] = test system: human ovarian cancer cell line IGROV-1; experiment: Antiproliferation assay, 72 hrs under air, Alamar Blue; type: cell-based; conditions: Homo sapiens, IGROV-1
[2] = test system: human melanoma cell line A375; experiment: as above; type: cell-based; conditions: Homo sapiens, A-375
[3] = test system: human prostate cancer cell line LNCap; experiment: as above; type: cell-based; conditions: Homo sapiens, LNCaP
[4] = test system: human melanoma cell line SKMEL2; experiment: as above; type: cell-based; conditions: Homo sapiens, SK-MEL-2, read-out: SKMEL-2 IC50
[5] = test system: IGROV1 human ovarian cancer cells; experiment: Xenograft model of metastatic ovarian cancer (i.p.), survival; conditions: IGROV1 i.p., median survival treated / vehicle times 100, PO, QD × 5/wk, 4 weeks
Procedure: One arm was dosed with only vehicle and the results used for the efficacy calculations. […] A xenograft model of metastatic ovarian cancer was set up by the intraperitoneal (i.p) injection of 3×10^6 IGROV1 human ovarian cancer cells in nude mice. Mice were evaluated twice a week for morbidity and mortality. Kaplan-Meier survival curves were plotted.

[6] = Brain penetration, AUC in brain versus AUC plasma; conditions: mouse
Procedure: Certain compounds of the invention were assessed for brain penetration by comparing the AUC for plasma exposure versus the AUC in brain.

[7] = test system: human non small cell lung cancer cell line H460; experiment: Antiproliferation (cytotoxicity) assay, 72 hrs under air, Alamar Blue; type: cell-based; conditions: Homo sapiens, NCI-H460; H460, inhibition of proliferation, 72 hrs under air; read-out: IC50
[8] = test system: MRP1 over expressing H69AR line; experiment: Efflux pump drug resistance, antiproliferation assay, MRP1 over expressing line; type: cell-based; conditions: Homo sapiens, 72 h, air, 3 days, read-out: Air 3d H69ar (MRP1) prol. IC50
Procedure: (§1) The compounds were screened for cytotoxicity using human non small cell lung cancer cell line H460. […]
(§2) Cellular drug resistance was determined using the antiproliferation assay described above.

[9] = test system: DX5, which over expresses the MDR 1 efflux pump; experiment: Efflux pump drug resistance, antiproliferation assay, MDR 1 over expressing line; type: cell-based; conditions: MDR1, 72 h, air, 3 days; read-out: Air 3d DX5 prol. IC50
Procedure: as §1, §2

[10] = test system: human prostate cancer cell line PC-3; experiment: Antiproliferation assay, 72 hrs under air, Alamar Blue; type: cell-based; conditions: Homo sapiens, read-out: PC3 IC50
human colon cancer HT-29 = experiment: Xenograft model, subcutaneous, tumor growth inhibition and body weight loss; conditions: for TGI (%): HT29, PO, QD × 5/wk; for Max. BWL (%): mouse, in vivo, po
Procedure: (§3) The first three models were produced by subcutaneous implantation of the appropriate number of cells into the flank of the animals. When tumor size was approximately 150 mm^3, animals were randomized into groups of 10 mice each for dosing. One arm was dosed with only vehicle and the results used for the efficacy calculations. […] TGI=(1−T/C) %. T/C ratio was calculated as T/C=(Tn−Ti)/(Cn−Ci), where Tn is tumor volume in treatment group on Day n, and Ti is the initial tumor volume in the treatment group. Cn is the tumor volume of the vehicle group on the last day of measurement. Ci is the initial tumor volume in the vehicle control group. Day n is the last measurement taken when all the animals in the vehicle group were not yet euthanized. Animals were euthanized when tumor volumes grew larger than 2000 mm^3.

[11] = test system: human non small cell lung cancer H-460; experiment: as above; conditions: for TGI (%): H460, PO, QD × 5/wk, 2 weeks; for Max. BWL (%): mouse, in vivo, po
Procedure: as §3

[12] = test system: human melanoma cell line SKMEL-28; experiment: Antiproliferation assay, 72 hrs under air, Alamar Blue; type: cell-based; conditions: Homo sapiens, SK-MEL-28
[13] = test system: mouse melanoma cell line B-16-F10; experiment: as above; type: cell-based; conditions: B16-F10
[14] = test system: BCRP, which over expressed the breast cancer resistance protein; experiment: Efflux pump drug resistance, antiproliferation assay, BCRP over expressing line; conditions: for IC50: 72 h, read-out: Air 3d BCRP prol. IC50 nM, air, 3 days; for 3d BCRP/pcDNA: ratio of IC50s, BCRP over expressing versus parent line, 3 days
Procedure: as §1, §2

[15] = test system: human colon cancer cell line HT-29; experiment: Antiproliferation assay, 72 hrs under air, Alamar Blue; type: cell-based; conditions: Homo sapiens, HT-29, read-out: HT29 IC50
[16] = test system: Messa ovarian carcinoma cell line; experiment: Efflux pump drug resistance, antiproliferation assay, parent line; type: cell-based; conditions: Homo sapiens, MES-SA, 72 h, air, 3 days; read-out: Air 3d MESSA prol. IC50
Procedure: […] Cells were treated with test compounds at various concentrations under air for 72 hrs, and then cell viability and proliferation were assessed by Alamar Blue staining.
as §2

pcDNA = experiment: as above; type: cell-based; conditions: 72 h, air, 3 days; read-out: Air 3d pcDNA prol. IC50
Procedure: as §1, §2

[17] = test system: H69 small cell lung cancer line; experiment: as above; type: cell-based; conditions: 72 h, air, 3 days; read-out: Air 3d H69 prol. IC50
Procedure: as §1, §2

[18] = test system: human melanoma cell line MAMLE-3M; experiment: Antiproliferation assay, 72 hrs under air, Alamar Blue; type: cell-based; conditions: Homo sapiens
[19] = In vivo pharmacokinetics, oral gavage; conditions: CD, mouse, in vivo, po; for AUC / Cmax: 50 mg/kg
Procedure: The data normalized to a 50 mg/kg dose are shown below (compounds were dosed at either 25 or 50 mg/kg).

[20] = Bone marrow progenitor cell clonogenic assay (CFU-GM), human; conditions: human
Procedure: (§4) A clonogenic assay was performed using bone marrow progenitor cells derived from the blood of mice and humans.

[21] = test system: bone marrow progenitor cells; experiment: as above; conditions: Homo sapiens, CFU-GM, read-out: Human CFU-GM (IC50 nM) THLD
Procedure: as §4

[22] = test system: human prostate cancer cell line DU145; experiment: Antiproliferation assay, 72 hrs under air, Alamar Blue; type: cell-based; conditions: Homo sapiens, DU-145
[23] = Bone marrow progenitor cell clonogenic assay (CFU-GM), mouse; conditions: mouse
Procedure: as §4

[24] = test system: bone marrow progenitor cells; experiment: as above; conditions: Mus musculus, CFU-GM, read-out: Mouse CFU-GM (IC50 nM) THLD
Procedure: as §4

Oral bioavailability = conditions: rat, in vivo, Sprague-Dawley rats
Source text: Rats are often a useful species for predicting oral bioavailablity in humans.

[25] = test system: human prostate cancer PC-3; experiment: Xenograft model, subcutaneous, tumor growth inhibition and body weight loss
Procedure: as §3

SMILES	IC50 [1]	IC50 [2]	IC50 [3]	IC50 [4]	Kp [6]	IC50 [7]	IC50 [8]	IC50 [9]	IC50 [10]	IC50 [12]	IC50 [14]	3d BCRP/pcDNA [14]	IC50 [15]	IC50 [16]	IC50 (pcDNA)	IC50 [17]	IC50 [18]	half-life [19]	AUC [19]	Cmax [19]	further results
CC[C@@]1(O)C(=O)OCc2c1c(N)c1n(c2=O)Cc2cc3ccccc3nc2-1 [TH1320]	120 nM	22 nM	110 nM	170 nM	1.15	18 nM	91 nM	60 nM	43 nM	3000 nM	14 nM	1.8919	229 nM	58 nM	7.4 nM	91 nM	776 nM	1.98 h	1620 ng·h/mL	547 ng/mL	T/C ([5]; 20 mg/Kg): 204; TGI (%) (human colon cancer HT-29; 2 weeks, 30 mg/Kg): 44.3%; Max. BWL (%) (human colon cancer HT-29; 30 mg/kg): 3%; TGI (%) ([11]; 30 mg/Kg): 79.2%; Max. BWL (%) ([11]; 30 mg/kg): 3.8%; IC50 [13]: 950 nM; IC90 [20]: 1100 nM; IC50 [21]: 130 nM; IC50 [22]: 50 nM; IC90 [23]: 4800 nM; IC50 [24]: 710 nM
CCc1c2c(nc3ccccc13)-c1c(N)c3c(c(=O)n1C2)COC(=O)[C@]3(O)CC [TH1338]	20 nM	7 nM	120 nM	130 nM	0.7	7.2 nM	240 nM	12 nM	24 nM	> 10000 nM	4.9 nM	1.1395	302 nM	4.3 nM	4.3 nM	110 nM	1200 nM	4.17 h	1070 ng·h/mL	250 ng/mL	T/C ([5]; 40 mg/Kg): 221; bioavailability (Oral bioavailability): 88.9%; TGI (%) ([25]; PC3, PO, QD × 5/wk, 2 weeks, 40 mg/Kg): 107%; Max. BWL (%) ([25]; mouse, in vivo, po, 40 mg/kg): 7%; TGI (%) (human colon cancer HT-29; 4 weeks, 40 mg/Kg): 100.7%; Max. BWL (%) (human colon cancer HT-29; 40 mg/kg): 2.9%; TGI (%) ([11]; 40 mg/Kg): 84.3%; Max. BWL (%) ([11]; 40 mg/kg): 1.5%; IC90 [20]: 650 nM; IC50 [21]: 100 nM; IC50 [22]: 18 nM; IC90 [23]: 4500 nM; IC50 [24]: 620 nM
